Like-named read-outs stand apart in the source and are kept apart here.
Legend:
[1] = tested on: SARS-CoV-2; experiment: Inhibitory activity of cytopathic effect (CPE) in HEK293T/ACE2-TMPRSS2 cells; assay type: cell-based; details: Severe acute respiratory syndrome coronavirus 2, HEK-293T, 72 h
[2] = biological target: SARS-CoV-2 3CL protease (Severe acute respiratory syndrome coronavirus 2, UniProt P0DTD1); experiment: Inhibitory activity test against SARS-CoV-2 3CL proteases; assay type: biochemical
[3] = IC50 (50% SARS-CoV-2 3CL protease inhibitory concentration)
[4] = HEK293T/ACE2-TMPRSS2 cells, cultured 3 days, CellTiter-Glo 2.0 luminescence, read-out: EC50 (50% SARS-CoV-2 infected cell death inhibitory concentration)
[5] = read-out: IC50 (50% SARS-CoV-2 3CL protease inhibitory concentration)
[6] = 50% SARS-CoV-2 infected cell death inhibitory concentration, HEK293T/ACE2-TMPRSS2 cells, CellTiter-Glo 2.0 after 3 days culture, read-out: EC50

Compound	EC50 [1, 4]	IC50 [2, 5]	further results
COc1nc(N2[C@@H]3CC[C@H]2CNC3)cc2c1c(=O)n(-c1cc(C)cnn1)c(=O)n2Cc1cc(F)c(F)c(F)c1 [Compound I-0926]			EC50 [1]: 106 nM; IC50 [2, 3]: 5.1 nM
CCn1cnc(Cn2c(=O)c3c(OC)nc(N4CC[C@@H](F)C4)cc3n(Cc3cc(F)c(F)c(F)c3)c2=O)n1 [Compound I-0927]	< 100 nM	< 100 nM	
COc1nc(-c2cc(C#N)ccc2Cl)cc2c1c(=O)n(-c1cc(C)cnn1)c(=O)n2Cc1cc(F)c(F)c(F)c1 [Compound I-0929]	< 100 nM	< 100 nM	
Cn1cnc(Cn2c(=O)c3c(=O)n(C)c(N4C[C@@H]5CC[C@H]4C5)cc3n(Cc3cc(F)c(F)c(Cl)c3)c2=O)n1 [Compound I-0930]	100 to 1000 nM	< 100 nM	
Cn1cnc(Cn2c(=O)c3c(=O)n(C)c(N4CCC(F)(F)C4)cc3n(Cc3cc(F)c(F)c(Cl)c3)c2=O)n1 [Compound I-0931]	100 to 1000 nM	< 100 nM	
Cn1cnc(Cn2c(=O)c3c4nccnc4c(N4CCCC4)cc3n(Cc3cc(F)c(F)c(F)c3)c2=O)n1 [Compound I-0932]	< 100 nM	< 100 nM	
Cn1cnc(Cn2c(=O)c3c4nccnc4c(-c4cc5c(cc4Cl)NC(=O)C5)cc3n(Cc3cc(F)c(F)c(F)c3)c2=O)n1 [Compound I-0933]	100 to 1000 nM	< 100 nM	
Cn1cnc(Cn2c(=O)c3c4nccnc4c(-c4cc(C#N)ccc4Cl)cc3n(Cc3cc(F)c(F)c(F)c3)c2=O)n1 [Compound I-0934]	< 100 nM	< 100 nM	
COc1nc(N2CC[C@@H](C#N)C2)cc2c1c(=O)n(-c1cncc(Cl)c1)c(=O)n2-c1ccc(F)c(Cl)c1 [Compound I-0936]		1.1 nM	EC50 [1, 6]: 5.34 nM
[2H]C([2H])([2H])O[C@@H]1CCN(c2cc3c(c(OC)n2)c(=O)n(-c2cncc(C)c2)c(=O)n3-c2ccc(F)c(Cl)c2)C1 [Compound I-0937]		1.3 nM	EC50 [1, 6]: 5.56 nM
COc1nc(N2CC[C@@H](C#N)C2)cc2c1c(=O)n(-c1cncc(F)c1)c(=O)n2-c1ccc(F)c(Cl)c1 [Compound I-0938]	< 100 nM	< 100 nM	
COc1nc(N2CC[C@@H](C#N)C2)cc2c1c(=O)n(-c1cncc(C#N)c1)c(=O)n2-c1ccc(F)c(Cl)c1 [Compound I-0939]	< 100 nM	< 100 nM	
COc1nc(N2C[C@@H]3C[C@H]2CO3)cc2c1c(=O)n(-c1cncc(C#N)c1)c(=O)n2-c1ccc(F)c(Cl)c1 [Compound I-0940]		1.7 nM	EC50 [1, 6]: 5.66 nM
COc1nc(N2CC[C@@H](C#N)C2)cc2c1c(=O)n(-c1cncc(OCF)c1)c(=O)n2-c1ccc(F)c(Cl)c1 [Compound I-0941]	< 100 nM	< 100 nM	
[2H]C([2H])([2H])O[C@@H]1CCN(c2cc3c(c(OC)n2)c(=O)n(-c2cnc4cc(F)ccn24)c(=O)n3-c2cc(F)c(F)c(Cl)c2)C1 [Compound I-0942]	< 100 nM	< 100 nM	
COc1nc(N2C[C@@H]3C[C@H]2CO3)cc2c1c(=O)n(-c1cnc3cc(F)ccn13)c(=O)n2-c1ccc(F)c(Cl)c1 [Compound I-0943]	< 100 nM	< 100 nM	
COc1nc(N2CC[C@@H](O)C2)cc2c1c(=O)n(-c1cncc(Cl)c1)c(=O)n2-c1ccc(F)c(Cl)c1 [Compound I-0944]	< 100 nM	< 100 nM	
COc1nc(N2CC[C@@H](C#N)C2)cc2c1c(=O)n(-c1cncc(C(F)F)c1)c(=O)n2-c1ccc(F)c(Cl)c1 [Compound I-0945]	< 100 nM	< 100 nM	
COc1nc(N2CC[C@@H](C#N)C2)cc2c1c(=O)n(-c1cnc3cc(F)c(F)cn13)c(=O)n2-c1ccc(F)c(Cl)c1 [Compound I-0946]	< 100 nM	< 100 nM	
[2H]C([2H])([2H])O[C@@H]1CCN(c2cc3c(c(OC)n2)c(=O)n(-c2cncc(C#N)c2)c(=O)n3-c2ccc(F)c(Cl)c2)C1 [Compound I-0948]	< 100 nM	< 100 nM	
COc1nc(N2CC[C@@H](C#N)C2)cc2c1c(=O)n(-c1cncc(Cl)c1)c(=O)n2-c1ccc(F)c(F)c1 [Compound I-0949]	< 100 nM	< 100 nM	
COc1nc(N2[C@@H]3CC[C@H]2CNC3)cc2c1c(=O)n(-c1cnc3cc(F)c(Cl)cn13)c(=O)n2-c1ccc(F)c(Cl)c1 [Compound I-0950]			EC50 ([1]; read-out: EC50 (50% SARS-CoV-2 infected cell death inhibitory concentration)): < 100 nM; IC50 [2, 3]: < 100 nM

Compound	EC50 [1, 4]	IC50 [2, 5]	further results
COc1nc(N2CC[C@@H](C#N)C2)cc2c1c(=O)n(-c1cncc(OC(F)F)c1)c(=O)n2-c1ccc(F)c(Cl)c1 [Compound I-0951]	< 100 nM	< 100 nM	
COc1nc(N2CC[C@@H](O)C2)cc2c1c(=O)n(-c1cnc3cc(F)c(Cl)cn13)c(=O)n2-c1ccc(F)c(Cl)c1 [Compound I-0952]	< 100 nM	< 100 nM	
[2H]C([2H])([2H])O[C@@H]1CCN(c2cc3c(c(OC)n2)c(=O)n(-c2cncc(F)c2)c(=O)n3-c2ccc(F)c(Cl)c2)C1 [Compound I-0953]	< 100 nM	< 100 nM	
COc1nc(N2CCC(F)(F)C2)cc2c1c(=O)n(-c1cncc(C)c1)c(=O)n2-c1ccc(F)c(Cl)c1 [Compound I-0954]	< 100 nM	< 100 nM	
O=c1c2c(=O)n(-c3cnc4cc(F)ccn34)c(=O)n(-c3ccc(F)c(Cl)c3)c2cc2n1CC[C@@H]1CCCN21 [Compound I-0955]		3.1 nM	EC50 [1, 6]: 540 nM
COc1nc(N2CC[C@@H](O)C2)cc2c1c(=O)n(-c1cncc(OCF)c1)c(=O)n2-c1ccc(F)c(Cl)c1 [Compound I-0956]	< 100 nM	< 100 nM	
COc1nc(N2CC[C@@H](O)C2)cc2c1c(=O)n(-c1cncc(C#N)c1)c(=O)n2-c1ccc(F)c(Cl)c1 [Compound I-0957]		3.2 nM	EC50 [1, 6]: 8.14 nM
COc1nc(N2CC[C@@H](C#N)C2)cc2c1c(=O)n(-c1cnc3cc(F)ccn13)c(=O)n2-c1ccc(F)c(C(F)F)c1 [Compound I-0958]	< 100 nM	< 100 nM	
COc1nc(N2CC[C@@H](C#N)C2)cc2c1c(=O)n(-c1cnc3cc(F)ccn13)c(=O)n2-c1ccc(F)c(F)c1 [Compound I-0959]	< 100 nM	< 100 nM	
COc1nc(N2C[C@@H]3C[C@H]2CO3)cc2c1c(=O)n(-c1cnc3cc(F)ccn13)c(=O)n2-c1ccc(F)c(C(F)F)c1 [Compound I-0960]	< 100 nM	< 100 nM	
COc1nc(N2C[C@@H](F)[C@@H](F)C2)cc2c1c(=O)n(-c1cnc3cc(F)ccn13)c(=O)n2-c1ccc(F)c(C(F)F)c1 [Compound I-0961]		3.4 nM	EC50 [1, 6]: 5.82 nM
Cl.[2H]C([2H])([2H])O[C@@H]1CCN(c2cc3c(c(OC)n2)c(=O)n(-c2cnc4cc(F)c(F)cn24)c(=O)n3-c2ccc(F)c(Cl)c2)C1 [Compound I-0962]	< 100 nM	< 100 nM	
[2H]C([2H])([2H])O[C@@H]1CCN(c2cc3c(c(OC)n2)c(=O)n(-c2cncc(OCF)c2)c(=O)n3-c2ccc(F)c(Cl)c2)C1 [Compound I-0963]	< 100 nM	< 100 nM	
COc1nc(N2CC[C@@H](O)C2)cc2c1c(=O)n(-c1cncc(C(F)F)c1)c(=O)n2-c1ccc(F)c(Cl)c1 [Compound I-0964]	< 100 nM	< 100 nM	
COc1nc(N2CC[C@@H](O)C2)cc2c1c(=O)n(-c1cncc(F)c1)c(=O)n2-c1ccc(F)c(Cl)c1 [Compound I-0965]	< 100 nM	< 100 nM	
CCNc1cc2c(c(OC)n1)c(=O)n(-c1cncc(Cl)c1)c(=O)n2-c1ccc(F)c(Cl)c1 [Compound I-0966]		3.8 nM	EC50 [1, 6]: 9.01 nM
COc1nc(N2CC[C@@H](O)C2)cc2c1c(=O)n(-c1cnc3cc(F)c(F)cn13)c(=O)n2-c1ccc(F)c(Cl)c1 [Compound I-0967]	< 100 nM	< 100 nM	
COc1nc(N2CC[C@@H](O)C2)cc2c1c(=O)n(-c1cncc(OC(F)F)c1)c(=O)n2-c1ccc(F)c(Cl)c1 [Compound I-0968]	< 100 nM	< 100 nM	
COc1nc(N2CC[C@@H](CO)C2)cc2c1c(=O)n(-c1cncc(Cl)c1)c(=O)n2-c1ccc(F)c(Cl)c1 [Compound I-0969]	< 100 nM	< 100 nM	
[2H]C([2H])([2H])O[C@@H]1CCN(c2cc3c(c(OC)n2)c(=O)n(-c2cncc(C(F)F)c2)c(=O)n3-c2ccc(F)c(Cl)c2)C1 [Compound I-0970]	< 100 nM	< 100 nM	
[2H]C([2H])([2H])O[C@@H]1CCN(c2cc3c(c(OC)n2)c(=O)n(-c2cncc(OC(F)F)c2)c(=O)n3-c2ccc(F)c(Cl)c2)C1 [Compound I-0971]	< 100 nM	< 100 nM	
